“Also recorded” adds a separate entry of the source. Where two headings read alike, the source gives them in different places.
Columns and labels:
[1] = test system: antibodies from dogs infected with E. chaffeensis; format: binding; conditions: ELISA, dog sera
[2] = test system: antibodies from dogs infected with E. canis; format: binding; conditions: ELISA, dog sera
[3] = test system: Ehrlichia antibody from dogs infected with E. ewingii; format: binding; conditions: ELISA; dog sera
[4] = test system: Ehrlichia antibody in human serum; format: binding; conditions: ELISA; humans infected with E. chaffeensis
Procedure: ELISA plates (Nunc, Maxisorp) were coated with P28-1 and incubated with sera of humans (infected with E. chaffeensis) (1:100) (1 hour-RT) followed by incubation with goat anti-human AP (1:1500).

[5] = test system: antibodies from mice infected with Rickettsia; format: binding; conditions: ELISA; R. conorii, R. australis, R. akari
[6] = test system: antibodies from mice infected with Orientia; format: binding; conditions: ELISA; O. tsutsugamushi
E. muris = test: Immunization and Ehrlichia muris challenge, ehrlichial load by quantitative real-time PCR; format: in vivo, C57BL/6 mice; conditions: for protection against E. muris challenge as determined by bacterial load (quantitative real time-PCR): immunized mice; for bacterial load in vaccinated mice compared to unvaccinated controls: spleen and liver, days 7 and 14 after bacterial infection; for protection against Ehrlichia infection (overall statement): vaccinated mice challenged with E. muris
Procedure: Since the P28-1955-75 and Ehrlichia Hsp6043-63 epitope peptides induced antibodies, the inventors reasoned that they also could provide protection against Ehrlichia thereby functioning as potential vaccine candidates. […] The spleen and liver were collected at different days after bacterial challenge and the bacterial copy number determined by quantitative real time PCR.
(§1) Mice were immunized i.p., with two doses of 50 micrograms (0.02 μM) of each P28-1955-75 peptide or Ehrlichia Hsp6043-63 peptides conjugated to KLH 15 days apart (the first immunization with complete Freund's adjuvant and the second immunization with incomplete Freund's adjuvant) (3 mice per group). Thirty days after the first immunization mice were challenged intraperitoneally (i.p.) with a high dose of E. muris (˜1×10^4 bacterial genomes) and observed daily. Controls included unchallenged naive mice as well as unvaccinated mice injected with E. muris alone. Mice were sacrificed on days 7, 14 and 21 after Ehrlichia challenge, and spleen and liver were harvested and sera collected. The ehrlichial load in spleen and liver was determined by quantitative RT-PCR. Sera were assayed for determination of antibody titers.
The bacterial burdens in the organs were determined by quantitative real-time PCR. The Ehrlichia-specific dsb gene, which encodes a disulfide bond-forming protein (GenBank accession #AY236484 and AY236485), was selected as the target gene for amplification of E. muris. The sequences of the primers and probes and thermal cycle conditions were described previously (Stevenson et al. (2006) Infect Immun 74:4856-4864). PCR analyses were considered negative for ehrlichial DNA if the critical threshold values (Ct) exceeded 40 cycles. Expression of the ehrlichial load was normalized relative to the total DNA. Each sample was run in duplicate.

[7] = test system: Ehrlichia-specific IgG antibody; test: Antibody response by ELISA in vaccinated mice after E. muris challenge; format: in vivo, C57BL/6 mice; conditions: for antibody levels in vaccinated mice, day 14 compared to day 7: after E. muris challenge; for IgG antibody response after E. muris challenge, vaccinated compared to unvaccinated E. muris-infected mice: blood on days 7 and 14
Procedure: ELISA plates (Nunc, Maxisorp) were coated with P28-1 and incubated with sera of mice (1:100) vaccinated with Ehrlichia Hsp60 and challenged with E. muris. Following incubation with mice sera they were incubated with goat anti-mouse AP (1:500).
Immunization with vaccines stimulates the immune system to produce a robust antibody response that can provide protection against pathogens. To determine the antibody responses against the Ehrlichia Hsp6043-63 peptide vaccine, blood was collected from vaccinated mice on days 7 and 14 and performed ELISA. […] However, there was no difference between the antibody levels in vaccinated mice between days 7 and 14. The Ehrlichia Hsp6043-63-specific antibody levels in infected unvaccinated mice were highest on day 14 compared to day 7 (FIG. 6A). To determine the antibody responses against the P28-1955-75 peptide vaccine, we collected blood from immunized mice on days 7 and 14 and subjected the samples to ELISA.
as §1

[8] = test system: antibody isotypes IgG1, IgG2c, IgG2b, IgG3, IgM; test: Measurement of antibody subclasses (isotypes) by ELISA in vaccinated mice after challenge; format: in vivo, C57BL/6 mice; conditions: day 14 post challenge
Procedure: as §1
ELISA was performed to measure the concentration of E. muris specific IgG subclass antibodies as described previously [Ismail et al. (2004) J Immunol 172:1786-1800; McBride et al. (2003) Infect Immun 71: 2516-2524). Briefly, the ELISA plates were coated with 50 μl of peptide (Ehrlichia Hsp6043-63) or recombinant P28-19 protein at a concentration of 4 μg/ml in PBS. Serum samples were diluted 1:100, and 100 μl of each sample was added to peptide-coated wells and incubated at 25° C. for 1 h. […] When peptides conjugated to KLH were used as a probe in ELISA, KLH was used as control and the results subtracted from positive values.

[9] = test system: IFN-γ-producing CD4+ T cells in the spleen; test: Flow cytometry of peptide-specific IFN-γ-producing memory CD4+ T cells in splenocytes of E. muris-infected mice; format: cell-based; conditions: day 45 after infection; splenocytes stimulated in vitro with the peptide for 18 h
Procedure: Flow cytometry was used to determine if Ehrlichia Hsp6043-63 and P28-19 specific memory T cells are induced during E. muris infection.
The frequencies of antigen specific IFN-γ-producing T cells in the spleens were determined by flow cytometric analysis. […]
After blocking Fc receptors with anti-Fc receptor mAbs (BD PharMingen, San Diego, Calif.) in FACS buffer (Dulbecco's PBS without Mg^2+ or Ca^2+ containing 1% fetal calf serum and 0.09% sodium azide) at 4° C. for 15 minutes, cells were labeled with fluorochrome-conjugated mAbs (BD Biosciences Pharmingen, San Diego, Calif.) specific for mouse CD3 (APC; clone 17A2), and CD4 (FITC; clone RM4-5), and CD8 (PerCP-Cy 5.5; clone 53-6.7). […] Data were analyzed using FCS Express software (De Novo Software, Los Angeles, Calif.). Dot plots were gated on CD3+ T cells and the frequencies and absolute numbers of antigen-specific IFN-γ-producing CD4+ T cells in the spleens were determined after subtracting the background staining of unstimulated cells in wells containing medium only.

Substance: akeeknataktfglkq (AKEEKNATAKTFGLKQ; listed as Ehrlichia muris) [P28-1955-75 peptide, peptide of E. muris outer membrane protein P28-19, amino acids 55-75]
- reaction with / detection of antibodies from dogs infected with E. chaffeensis [1]: reacted
- reaction with / detection of antibodies from dogs infected with E. chaffeensis ([1]; listed as P28 peptide): very sensitive
- reaction with / detection of antibodies from dogs infected with E. canis [2]: reacted
- reaction with / detection of antibodies from dogs infected with E. canis ([2]; listed as P28 peptide): very sensitive
- detection of Ehrlichia antibodies of dogs infected with E. ewingii [3]: very sensitive
- detection of Ehrlichia antibody in human serum [4]: sensitive
- cross-reaction with antibodies from mice infected with Rickettsia [5]: did not react
- cross-reaction with antibodies from mice infected with Orientia [6]: did not react
- protection against E. muris challenge as determined by bacterial load (quantitative real time-PCR) (E. muris; days 7 and 14 after E. muris challenge): protected
- bacterial load in vaccinated mice compared to unvaccinated controls (E. muris): lower bacterial load
- protection against Ehrlichia infection (overall statement) (E. muris): provided protection
- antibody levels in vaccinated mice, day 14 compared to day 7 [7]: higher on day 14
- IgG antibody response after E. muris challenge, vaccinated compared to unvaccinated E. muris-infected mice [7]: higher IgG antibody levels
- antibody isotype levels in vaccinated compared to unvaccinated mice after bacterial challenge [8]: higher levels of IgG1, IgG2b, IgG2c, and IgG3
- antibody isotype levels in vaccinated compared to unvaccinated mice after bacterial challenge ([8]; listed as P28-1955-75): higher levels of IgG1, IgG2b, IgG3 and IgM
- peptide-specific IFN-γ-producing CD4+ T cells in spleen of E. muris-infected mice compared to naive uninfected mice [9]: significantly higher frequencies and absolute numbers; also recorded: higher frequency

Substance: ygapeitkdgykviksikped (YGAPEITKDGYKVIKSIKPED; listed as Ehrlichia muris) [Ehrlichia Hsp6043-63 peptide]
- reaction with / detection of antibodies from dogs infected with E. chaffeensis [1]: reacted
- reaction with / detection of antibodies from dogs infected with E. canis [2]: reacted
- cross-reaction with antibodies from mice infected with Rickettsia [5]: did not react
- cross-reaction with antibodies from mice infected with Orientia [6]: did not react
- protection against E. muris challenge as determined by bacterial load (quantitative real time-PCR) (E. muris; day 14 after E. muris challenge): protected
- bacterial load in vaccinated mice compared to unvaccinated controls (E. muris): lower bacterial load
- protection against Ehrlichia infection (overall statement) (E. muris): provided protection
- antibody levels in vaccinated mice, day 14 compared to day 7 [7]: no difference
- IgG antibody response after E. muris challenge, vaccinated compared to unvaccinated E. muris-infected mice [7]: higher IgG antibody levels
- antibody isotype levels in vaccinated compared to unvaccinated mice after bacterial challenge [8]: higher levels of IgG1, IgG2c, IgG2b, and IgG3
- antibody isotype levels in vaccinated compared to unvaccinated mice after bacterial challenge ([8]; listed as Ehrlichia Hsp6043-63): higher levels of IgG1, IgG2c, IgG2b, IgG3 and IgM
- peptide-specific IFN-γ-producing CD4+ T cells in spleen of E. muris-infected mice compared to naive uninfected mice [9]: significantly higher frequencies and absolute numbers; also recorded: higher frequency

Source: US8492103B2 (priority 2011, dated 2013)
